How the values were obtained:
Plasmodium falciparum [1] = experiment: NOVARTIS: Inhibition of Plasmodium falciparum 3D7 (drug-susceptible) proliferation in erythrocyte-based infection assay; type: functional, organism-based; settings: Plasmodium falciparum, 3D7
[2] = NOVARTIS: Cytotoxicity against human hepatocellular carcinoma cell line (Huh7); type: toxicity, cell-based, Huh-7; settings: Huh7 cells (hepatocellular carcinoma cell line)
Plasmodium falciparum [3] = experiment: NOVARTIS: Inhibition of Plasmodium falciparum W2 (drug-resistant) proliferation in erythrocyte-based infection assay; type: functional, organism-based; settings: Plasmodium falciparum, W2; read-out: EC50

CC(=O)Oc1cccc(C=c2sc3ncnn3c2=O)c1
EC50 (Plasmodium falciparum [1]): > 1250 nM
CC50 [2]: > 10000 nM
EC50 (Plasmodium falciparum [3]): > 989 nM

O=C(Nc1ccc(-c2nc3ccc(-c4nc5ccc(NC(=O)c6ccccc6[N+](=O)[O-])cc5[nH]4)cc3[nH]2)cc1)c1ccccc1[N+](=O)[O-]
EC50 (Plasmodium falciparum [1]): > 1250 nM
CC50 [2]: > 10000 nM
EC50 (Plasmodium falciparum [3]): 987 nM

O=C(Nc1ccc(-c2nc3ccc(NC(=O)c4ccc(Br)cc4)cc3[nH]2)cc1)c1ccc(Br)cc1
EC50 (Plasmodium falciparum [1]): 315 nM
CC50 [2]: 4190 nM
EC50 (Plasmodium falciparum [3]): 413 nM

COc1cccc2c1C(=O)c1c(O)c3c(c(O)c1C2=O)C[C@@](O)(C(=O)CO)C[C@@H]3O[C@@H]1C[C@H](N)[C@H](O)[C@H](C)O1
EC50 (Plasmodium falciparum [1]): 48.6 nM
CC50 [2]: 485 nM
EC50 (Plasmodium falciparum [3]): 47.7 nM

COc1cccc2c(C)cc(NCc3ccccc3Cl)nc12
EC50 (Plasmodium falciparum [1]): > 1250 nM
CC50 [2]: > 10000 nM
EC50 (Plasmodium falciparum [3]): > 985 nM

CC1(C)CC(=O)C2=C(C1)NC(=O)CC2c1ccc(C(C)(C)C)cc1 (centres undefined)
EC50 (Plasmodium falciparum [1]): > 1250 nM
CC50 [2]: > 10000 nM
EC50 (Plasmodium falciparum [3]): > 1010 nM

N#C/C(=C\c1cc2ccccc2nc1Cl)c1nc(-c2ccc(Cl)c(Cl)c2)cs1
EC50 (Plasmodium falciparum [1]): > 1250 nM
CC50 [2]: > 10000 nM
EC50 (Plasmodium falciparum [3]): > 1010 nM

COc1ccc(/C=C2\SC(=O)NC2=Nc2ccccc2)c(OC)c1
EC50 (Plasmodium falciparum [1]): 1100 nM
CC50 [2]: > 10000 nM
EC50 (Plasmodium falciparum [3]): 1010 nM

CCCCCCN(C(=O)c1ccc(C(C)(C)C)cc1)C(CC)c1nc2cc(Cl)ccc2c(=O)n1CC (centres undefined)
EC50 (Plasmodium falciparum [1]): 954 nM
CC50 [2]: > 10000 nM
EC50 (Plasmodium falciparum [3]): 1010 nM

CCN1CCC(N2CCC(n3c(C4CCC4)nc4cc(F)ccc43)CC2)CC1
EC50 (Plasmodium falciparum [1]): 453 nM
CC50 [2]: 21500 nM
EC50 (Plasmodium falciparum [3]): 2170 nM

COC(=O)C1=C(C)N/C(=C\c2cc(C)n(-c3cc(Cl)ccc3Cl)c2C)C1=O
EC50 (Plasmodium falciparum [1]): 1520 nM
CC50 [2]: > 10000 nM
EC50 (Plasmodium falciparum [3]): 1010 nM

COc1ccc2oc(=O)c(C(=O)N(C)c3ccc(S(N)(=O)=O)cc3)cc2c1
EC50 (Plasmodium falciparum [1]): > 1250 nM
CC50 [2]: > 10000 nM
EC50 (Plasmodium falciparum [3]): > 1010 nM

CCCCN(C)C(=O)c1sc2ncn(CC(=O)N(CC)CC)c(=O)c2c1C
EC50 (Plasmodium falciparum [1]): > 1250 nM
CC50 [2]: > 10000 nM
EC50 (Plasmodium falciparum [3]): > 1010 nM

N#Cc1ccc(NC(=O)c2cc(Cl)ccc2O)cc1
EC50 (Plasmodium falciparum [1]): 1090 nM
CC50 [2]: > 10000 nM
EC50 (Plasmodium falciparum [3]): 1010 nM

Cc1nc(N2CCN(C)CC2)c2c(C)c(C(=O)NCCN(C)C)sc2n1
EC50 (Plasmodium falciparum [1]): > 1600 nM
CC50 [2]: > 10000 nM
EC50 (Plasmodium falciparum [3]): > 1000 nM

CN(CC(=O)NC(C)(C)C)S(=O)(=O)c1ccccc1
EC50 (Plasmodium falciparum [1]): > 1250 nM
CC50 [2]: > 10000 nM
EC50 (Plasmodium falciparum [3]): > 1000 nM

CCOc1ccc2nc3cc(NC(=O)c4ccc(C)cc4)ccc3c(N)c2c1
EC50 (Plasmodium falciparum [1]): > 1190 nM
CC50 [2]: > 10000 nM
EC50 (Plasmodium falciparum [3]): 997 nM

CCOC(=O)c1cnc2ccc(OCC)cc2c1NCCN(CC)CC
EC50 (Plasmodium falciparum [1]): 832 nM
CC50 [2]: > 10000 nM
EC50 (Plasmodium falciparum [3]): > 988 nM

O=C1CN(C(=O)CC2CCCCC2)C(c2ccccc2)c2cc(Cl)ccc2N1 (centres undefined)
EC50 (Plasmodium falciparum [1]): 7610 nM
CC50 [2]: 46300 nM
EC50 (Plasmodium falciparum [3]): 4570 nM

CC12CN3CC(C)(CN(C1)C3c1ccccc1)C2=O (centres undefined)
EC50 (Plasmodium falciparum [1]): > 11200 nM
CC50 [2]: > 100000 nM
EC50 (Plasmodium falciparum [3]): > 10000 nM

O=C(COC(=O)c1c2c(nc3ccccc13)CCCCCCCCCC2)c1ccc(Cl)cc1
EC50 (Plasmodium falciparum [1]): > 11200 nM
CC50 [2]: > 100000 nM
EC50 (Plasmodium falciparum [3]): > 10000 nM

COc1ccc(CN(C)C(C)C)cc1OC1CCN(C(=O)C2CCC2)CC1
EC50 (Plasmodium falciparum [1]): > 11200 nM
CC50 [2]: > 100000 nM
EC50 (Plasmodium falciparum [3]): > 10000 nM

CN(CCCNc1nc2ccccc2c2nc(-c3cccnc3)nn12)Cc1ccccc1
EC50 (Plasmodium falciparum [1]): > 771 nM
CC50 [2]: > 10000 nM
EC50 (Plasmodium falciparum [3]): > 996 nM

COc1cc(C=NNC(=O)c2cccc3ccccc23)ccc1OCC(N)=O
EC50 (Plasmodium falciparum [1]): > 1250 nM
CC50 [2]: > 10000 nM
EC50 (Plasmodium falciparum [3]): > 989 nM

O=C(Oc1ccc(N2C(=O)c3ccc([N+](=O)[O-])cc3C2=O)cc1)c1ccco1
EC50 (Plasmodium falciparum [1]): > 10000 nM
CC50 [2]: > 100000 nM
EC50 (Plasmodium falciparum [3]): > 10000 nM

Cc1[nH]c(=O)[nH]c(=O)c1S(=O)(=O)Nc1ccc2oc(-c3ccncc3)nc2c1
EC50 (Plasmodium falciparum [1]): > 10000 nM
CC50 [2]: > 100000 nM
EC50 (Plasmodium falciparum [3]): > 10000 nM

Cc1c(Cl)cccc1NC(=S)N(CCCN(C)c1ccccc1)Cc1cccn1Cc1ccc(Cl)cc1
EC50 (Plasmodium falciparum [1]): > 7300 nM
CC50 [2]: > 100000 nM
EC50 (Plasmodium falciparum [3]): > 10000 nM

CCCc1ccc(OCCNC(=O)CCNC(=O)Nc2cccc(Cl)c2)cc1
EC50 (Plasmodium falciparum [1]): > 1380 nM
CC50 [2]: > 10000 nM
EC50 (Plasmodium falciparum [3]): > 999 nM

CCCCOc1ccc(C(=O)Nc2c3c(nn2-c2ccc(C)cc2C)CSC3)cc1
EC50 (Plasmodium falciparum [1]): > 1520 nM
CC50 [2]: > 10000 nM
EC50 (Plasmodium falciparum [3]): 1020 nM

CCN(CC)C(=O)c1ccc2c(=O)n(Cc3cccc(Br)c3)c(=S)[nH]c2c1
EC50 (Plasmodium falciparum [1]): > 1250 nM
CC50 [2]: > 10000 nM
EC50 (Plasmodium falciparum [3]): 1020 nM

C=C(C)C(=O)OCCc1ccc(O)c(-n2nc3ccccc3n2)c1
EC50 (Plasmodium falciparum [1]): > 1250 nM
CC50 [2]: > 10000 nM
EC50 (Plasmodium falciparum [3]): 1010 nM

CC(=O)O[C@]1(C(C)=O)CCC2C3C=CC4=CC(=O)CC[C@]4(C)C3CC[C@@]21C (some centres undefined)
EC50 (Plasmodium falciparum [1]): > 1210 nM
CC50 [2]: > 10000 nM
EC50 (Plasmodium falciparum [3]): 1010 nM

O=C(NN1CCOCC1)c1ccc(Br)cc1
EC50 (Plasmodium falciparum [1]): > 1510 nM
CC50 [2]: > 10000 nM
EC50 (Plasmodium falciparum [3]): > 997 nM

c1cc(NCc2ccc3c(c2)OCO3)n2ncc(-c3ccoc3)c2n1
EC50 (Plasmodium falciparum [1]): > 1250 nM
CC50 [2]: > 10000 nM
EC50 (Plasmodium falciparum [3]): > 1020 nM

CC1(C)Cc2c(sc(NC(=O)CCl)c2C#N)CO1
EC50 (Plasmodium falciparum [1]): 2040 nM
CC50 [2]: 20500 nM
EC50 (Plasmodium falciparum [3]): 2080 nM

Cc1ccc(-n2c(SCc3cccc(C)c3)nnc2C(Cc2ccccc2)NC(=O)NC(C)(C)C)cc1 (centres undefined)
EC50 (Plasmodium falciparum [1]): 735 nM
CC50 [2]: > 10000 nM
EC50 (Plasmodium falciparum [3]): 1010 nM

CC1C/C(=C/c2ccncc2)C(=O)/C(=C/c2ccncc2)C1 (centres undefined)
EC50 (Plasmodium falciparum [1]): 1210 nM
CC50 [2]: > 10000 nM
EC50 (Plasmodium falciparum [3]): 990 nM

O=C(NC(=C(Cl)Cl)[P+](c1ccccc1)(c1ccccc1)c1ccccc1)c1ccc(F)cc1
EC50 (Plasmodium falciparum [1]): 954 nM
CC50 [2]: 1740 nM
EC50 (Plasmodium falciparum [3]): 171 nM

O=C(CN1CCN(C(=O)c2ccco2)CC1)Nc1cc(C(F)(F)F)ccc1Cl
EC50 (Plasmodium falciparum [1]): 4040 nM
CC50 [2]: > 100000 nM
EC50 (Plasmodium falciparum [3]): > 10000 nM

CCC(CC)C(=O)N1CCOc2c(cc(-c3csc4ccccc34)cc2OCc2ccccn2)C1
EC50 (Plasmodium falciparum [1]): 1110 nM
CC50 [2]: > 10000 nM
EC50 (Plasmodium falciparum [3]): 1010 nM

CCOC(=O)C1=C(C)N/C(=C\c2cc(C)n(-c3ccc(C)cc3)c2C)C1=O
EC50 (Plasmodium falciparum [1]): 1840 nM
CC50 [2]: > 10000 nM
EC50 (Plasmodium falciparum [3]): 988 nM

O=C1CCC(c2ccc(Cl)c(Cl)c2)c2ccc(O)cc21 (centres undefined)
EC50 (Plasmodium falciparum [1]): 449 nM
CC50 [2]: > 9270 nM
EC50 (Plasmodium falciparum [3]): > 914 nM

CC(C)(c1ccc(Oc2ccc(NC(=O)C(F)(F)F)cc2)cc1)c1cccc(Oc2ccc(NC(=O)C(F)(F)F)cc2)c1
EC50 (Plasmodium falciparum [1]): 2060 nM
CC50 [2]: > 10000 nM
EC50 (Plasmodium falciparum [3]): > 986 nM

O=S(=O)(NC1CCCC1)c1cccc2nonc12
EC50 (Plasmodium falciparum [1]): > 1600 nM
CC50 [2]: > 10000 nM
EC50 (Plasmodium falciparum [3]): > 982 nM

O=C(CC(=NNc1nc(NN=C(CC(=O)C(F)(F)F)C(F)(F)F)nc(N(c2ccccc2)c2ccccc2)n1)C(F)(F)F)C(F)(F)F
EC50 (Plasmodium falciparum [1]): 670 nM
CC50 [2]: > 10000 nM
EC50 (Plasmodium falciparum [3]): 1010 nM

COc1ccc(-c2csc3ncn(N)c(=O)c23)cc1
EC50 (Plasmodium falciparum [1]): > 1250 nM
CC50 [2]: > 10000 nM
EC50 (Plasmodium falciparum [3]): > 1010 nM

CCCN(CC(=O)Nc1cc(C(C)(C)C)nn1-c1cccc(C)c1)C(=O)c1cccc([N+](=O)[O-])c1
EC50 (Plasmodium falciparum [1]): > 1630 nM
CC50 [2]: > 10000 nM
EC50 (Plasmodium falciparum [3]): 1010 nM

O=C1c2cccc3cccc(c23)C(=O)N1c1ccc(-c2c3ccccc3c(-c3ccc(N4C(=O)c5cccc6cccc(c56)C4=O)cc3)c3ccccc23)cc1
EC50 (Plasmodium falciparum [1]): 1050 nM
CC50 [2]: > 10000 nM
EC50 (Plasmodium falciparum [3]): 1000 nM

COc1ccc2[nH]c3c(=O)n(C)cnc3c2c1
EC50 (Plasmodium falciparum [1]): > 1410 nM
CC50 [2]: > 10000 nM
EC50 (Plasmodium falciparum [3]): 1000 nM

CN1C(=O)NC(c2cccnc2)C(C(=O)c2cccs2)C1(O)C(F)(F)F (centres undefined)
EC50 (Plasmodium falciparum [1]): > 11200 nM
CC50 [2]: > 100000 nM
EC50 (Plasmodium falciparum [3]): > 10000 nM

COc1cccc(C2CC3(CC(C)(C)NC(=S)N3)Oc3cc(OC(C)=O)c(Cl)cc32)c1 (centres undefined)
EC50 (Plasmodium falciparum [1]): > 1300 nM
CC50 [2]: > 10000 nM
EC50 (Plasmodium falciparum [3]): > 995 nM

CCCCCN(CC(=O)Nc1cc(C(C)(C)C)nn1-c1ccc(Cl)c(Cl)c1)C(=O)c1cccc(OC)c1
EC50 (Plasmodium falciparum [1]): 597 nM
CC50 [2]: > 10000 nM
EC50 (Plasmodium falciparum [3]): 992 nM

Cc1ccc(-c2cc(C)[n+](C)c(-c3ccc(C)cc3)c2)cc1
EC50 (Plasmodium falciparum [1]): 313 nM
CC50 [2]: 7520 nM
EC50 (Plasmodium falciparum [3]): 763 nM

Source: ChEMBL document CHEMBL1156829 (Proc Natl Acad Sci U S A, 2008)
